ChEMBL document CHEMBL1133938, “Parallel solid-phase synthesis of zatebradine analogues as potential I(f) channel blockers” (2001)

Organism: Cavia porcellus
Experiment: Inhibitory activity to reduce the spontaneous beating of isolated guinea-pig atria in a concentration-dependent manner at the dose of 3 uM
Format: functional

Q: For COc1cc2c(cc1OC)CC(=O)N(CCCNCCOc1ccccc1)C=C2, which Max inhibition is on record?
A: 80%

Q: And the inhibition at 3 µM?
A: 53%

Q: Which results are given for COc1ccc(CCNCCCN2C=Cc3cc(OC)c(OC)cc3CC2=O)cc1?
A: Max inhibition: 69%; inhibition at 3 µM: 60%

Q: Which results are given for C=CCN(CCCN1C=Cc2cc(OC)c(OC)cc2CC1=O)CCc1ccccc1?
A: Max inhibition: 71%; inhibition at 3 µM: 53%

Q: Which Max inhibition does the source give for COc1cc2c(cc1OC)CC(=O)N(CCCNCCCCc1ccccc1)C=C2 here?
A: 84%

Q: And the inhibition at 3 µM?
A: 43%

Q: Which Max inhibition does the source give for COc1cc2c(cc1OC)CC(=O)N(CCCNCCc1ccccc1)C=C2 here?
A: 81%

Q: What about the inhibition at 3 µM of the same compound?
A: 60%

Q: What does the source list for C=CCN(CCCN1C=Cc2cc(OC)c(OC)cc2CC1=O)CCc1ccc(Cl)cc1?
A: Max inhibition: 60%; inhibition at 3 µM: 31%

Q: Which Max inhibition does the source give for C=CCN(CCCc1ccccc1)CCCN1C=Cc2cc(OC)c(OC)cc2CC1=O here?
A: 100%

Q: And the inhibition at 3 µM?
A: 44%

Q: For COc1ccc(CCNCCCN2CCc3cc(OC)c(OC)cc3CC2=O)cc1OC, which Max inhibition is on record?
A: 68%

Q: And the inhibition at 3 µM?
A: 40%

Q: What does the source list for COc1ccc(CCNCCCN2C=Cc3cc(OC)c(OC)cc3CC2=O)cc1OC?
A: Max inhibition: 77%; inhibition at 3 µM: 59%

Q: For COc1cc2c(cc1OC)CC(=O)N(CCCNCCc1ccc(Cl)cc1)C=C2, which Max inhibition is on record?
A: 68%

Q: What about the inhibition at 3 µM of the same compound?
A: 60%

Q: What does the source list for C=CCN(CCCN1C=Cc2cc(OC)c(OC)cc2CC1=O)CCc1ccc(OC)cc1?
A: Max inhibition: 81%; inhibition at 3 µM: 80%

Q: How did the Max inhibition turn out when C=CCN(CCCCc1ccccc1)CCCN1C=Cc2cc(OC)c(OC)cc2CC1=O was run?
A: 91%

Q: What about the inhibition at 3 µM of the same compound?
A: 54%

Q: For COc1ccc(CCN(CCCN2C=Cc3cc(OC)c(OC)cc3CC2=O)Cc2ccccc2)cc1OC, which Max inhibition is on record?
A: 59%

Q: And the inhibition at 3 µM?
A: 25%

Q: With C=CCN(CCCN1C=Cc2cc(OC)c(OC)cc2CC1=O)CCc1ccc(OC)c(OC)c1 as the compound, how does the Max inhibition read?
A: 69%

Q: What about the inhibition at 3 µM of the same compound?
A: 34%

Q: How did the Max inhibition turn out when C=CCN(CCCN1C=Cc2cc(OC)c(OC)cc2CC1=O)CCOc1ccccc1 was run?
A: 100%

Q: And the inhibition at 3 µM?
A: 42%

Q: COc1cc2c(cc1OC)CC(=O)N(CCCNCCCc1ccccc1)C=C2 was tested. Which Max inhibition did it give?
A: 60%

Q: What about the inhibition at 3 µM of the same compound?
A: 31%
